We go through three substances from patent US20210393742A1, “LONG-ACTING INTERLEUKIN-15 RECEPTOR AGONIST IN COMBINATION WITH ANOTHER PHARMACOLOGICALLY ACTIVE AGENT” (Nektar Therapeutics, priority 2018, published 2021).

Assay [1] has as its system Daudi B cell lymphoma. As to the kind of experiment: Survival in Daudi B cell lymphoma xenograft model, combination with rituximab (Example 1). The following applies: after about 30 days; rituximab 40 mg/kg IP, days 14 and 17. The assay is classed as in vivo, mice. As to the method: At day 0, SCID mice were intravenously injected with 1×10^7 Daudi cells. The mice were divided into four groups. On days 14 and 17 post-Daudi cell injection, the groups were treated by injection as follows: Group 1: isotype control antibody, Group 2: 40 mg/kg IP rituximab, Group 3: 0.3 mg/kg mono(methoxyPEG-N-butanamide)40 kD interleukin-15 (a long-acting IL-15 receptor agonist), Group 4: 40 mg/kg IP rituximab and 0.3 mg/kg SC mono(methoxyPEG-N-butanamide)40 kD interleukin-15 (combination).
The survival rate was determined by measuring the onset of hind limb paralysis as a surrogate parameter.

In assay [2] the test system is NK cells. In words: NKG2A and NKG2D surface expression on bone marrow NK cells of Daudi lymphoma bearing mice (Example 4). The assay is classed as in vivo. The conditions noted are these: bone marrow day 24; Conjugate 1 0.3 mg/kg SC days 14 and 21; antibody 0.5 mg/kg IP day 14. As to the method:
(§1) Balb/c mice bearing Daudi B cell lymphoma tumors in the bone marrow (n=6/group) were intraperitoneally administered a single 0.5 mg/kg dose of the human CD38 protein targeting clinical antibody daratumumab (DARZALEX®, Janssen Biotech) or a nonspecific control antibody with a matching isotype on day 14 after Daudi cell intravenous inoculation. Additional groups were administered mono(methoxyPEG-N-butanamide)40 kD interleukin-15 (Conjugate 1) subcutaneously at a dose of 0.3 mg/kg as a single agent on days 14 and 21 after Daudi cell inoculation, or administered a combination treatment of Conjugate 1 administered subcutaneously at doses of 0.03 mg/kg or 0.3 mg/kg on days 14 and 21 after Daudi cell inoculation and daratumumab administered intraperitoneally at a dose of 0.5 mg/kg on day 14 after Daudi cell inoculation.
Three days following the second Conjugate 1 administration (day 24 after Daudi inoculation), bone marrow was collected and the NK cell fraction was measured by flow cytometry in total bone marrow. Expression of the cell surface activating receptor NKG2D and the inhibitory checkpoint receptor NKG2A are shown in FIGS. 7A and 7B, respectively.

In assay [3] the test system is NK cells. In words: CD16 surface expression on bone marrow NK cells of Daudi lymphoma bearing mice (Example 10). The conditions noted are these: bone marrow day 24. The assay is classed as in vivo. As for the experimental part:
as §1, with “were treated with (i) mono(mPEG-N-butanamide)40” for “were administered mono(methoxyPEG-N-butanamide)40”, “1) administered” for “1)”, “or (ii)” for “or administered”
Three days following the second Conjugate 1 administration (day 24 after Daudi inoculation), bone marrow was collected and the NK cell fraction was measured by flow cytometry in total bone marrow. The fraction of NK cells expressing the cell surface CD16 receptor that is known to mediate antibody dependent cellular cytotoxicity mechanism in the presence of tumor targeting antibodies, and the change in CD16 expression per cell basis on NK cells are shown in FIGS. 13A and 13B, respectively.

The test system of assay [4] is Daudi B cell lymphoma. In words: Daudi cell counts in bone marrow, low and high doses (Example 14). The format is in vivo, mice. The following applies: day 24, single agent. As for the experimental part:
SCID mice (N=6/group) were intravenously inoculated with 10 million Daudi cells on Day 0 and treated with a single dose of a lower or higher dose of daratumumab (0.05 mg/kg or 5 mg/kg IP, 14 days following Daudi cell inoculation) and two doses of either lower or higher dose mono(methoxyPEG-N-butanamide)interleukin-15 (compound 1) (0.03 mg/kg or 0.6 mg/kg intravenously, one dose at each of 14 and 21 days after inoculation). Mice were also treated with the single agent therapies: daratumumab (0.05 mg/kg or 5 mg/kg IP, 14 days following Daudi cell inoculation) or two doses of mono(methoxyPEG-N-butanamide)40 kD interleukin-15 (compound 1) (0.03 mg/kg or 0.6 mg/kg intravenously, 14 and 21 days after inoculation). Daudi cell numbers in the bone marrow were assessed three days following the second dose of mono(methoxyPEG-N-butanamide)40 kD interleukin-15 (day 24) by flow cytometry as shown in FIGS. 17A and 17B.

Assay [5] deals with Daudi B cell lymphoma. In words: Survival in Daudi B cell lymphoma xenograft model, combination with daratumumab (Example 3). The format is in vivo, mice. The following applies: post tumor injection; daratumumab 0.5 mg/kg IP day 14; agonist 0.3 mg/kg SC days 14, 21, 28. As to the method:
SCID mice (N=8/group) inoculated intravenously with 1×10^7 Daudi B cell lymphoma cells were treated with a single dose of daratumumab (0.5 mg/kg, IP, 14 days after inoculation) and a total of three doses of mono(methoxyPEG-N-butanamide)40 kD interleukin-15 (0.3 mg/kg, SC, administered 14, 21 and 28 days after tumor inoculation). Also evaluated were untreated mice as a control and mice treated with daratumumab as a single agent therapy. Survival of tumor-inoculated mice was measured by body condition scoring as endpoint marker. Results are provided graphically in FIG. 5.

The test system of assay [6] is NK cells. In words: Granzyme B expression per cell in bone marrow NK cells of Daudi lymphoma bearing mice (Example 11). The format is in vivo. The conditions noted are these: bone marrow day 24; Conjugate 1 0.3 mg/kg; antibody 0.5 mg/kg. As to the method: as §1, with “daratumumab (DARZALEX®),” for “daratumumab (DARZALEX®,”, “were treated with (i) mono(mPEG-N-butanamide)40” for “were administered mono(methoxyPEG-N-butanamide)40”, “1) administered” for “1)”, “or (ii)” for “or administered”
Three days following the second Conjugate 1 administration (day 24 after Daudi inoculation), bone marrow was collected and the NK cell fraction was measured by flow cytometry in total bone marrow.

Assay [7] deals with STAT5 phosphorylation in KHYG-1 cells. As to the kind of experiment: Phosphorylation of STAT5 in KHYG-1 cells (Example 7). The following applies: 10 minutes. The assay is classed as cell-based, human. As for the experimental part:
KHYG-1 cells were cultured in RPMI-1640 medium supplemented with 20% FBS, 2 mM L-glutamine, and 20 ng/mL IL-2 (Complete growth medium) in a humidified incubator at 37° C. and 5% CO2.
One day prior to treatment with test compounds, cells were seeded at a density of 500,000 viable cells/ml in Complete growth medium and incubated overnight under normal growth conditions. On the day of the assay, KHYG-1 cells were washed 3 times with DPBS, resuspended in assay medium (RPMI-1640 medium supplemented with 20% FBS, 2 mM L-glutamine), and incubated for 4-5 hours at 37° C., 5% CO2. Cells were adjusted to the appropriate density (8×10^5 cells/mL) in assay medium and 50,000 cells/well were aliquoted into wells of a 96-well plate (View-Plate 96, Perkin-Elmer).
KHYG-1 cells were stimulated with IL-15 or a long-acting IL-15 receptor agonist (mono(mPEG-butanamide)IL-15) followed by incubation at 37° C., 5% CO2 for 10 minutes. Treated cells were lysed on ice.
Detection of phospho-STAT5 protein levels in cell lysates was performed using the Phospho(Tyr694)/Total STAT5a,b Assay Whole Cell Lysate kit (MSD product #K15163D). Relative light unit (RLU) signal corresponding to phosphor-STAT5 was collected using a Sector® Imager 2400 plate reader (MSD) with the results provided in FIG. 10A.

The test system of assay [8] is STAT5 phosphorylation in lymphocytes. In words: STAT5 phosphorylation in lymphocytes at time points after administration in mice, flow cytometry. The format is in vivo. The text has this:
Conventional approaches, such as those involving radiolabeling a compound, administering the compound in vivo, and determining its clearance, can be used to assess whether a compound proposed to be a long-acting, IL-15 receptor agonist is “long-acting” (i.e., has a clearance that is longer than that of IL-15 administered in the same in vivo system). For the purposes herein, the long-acting nature of a long-acting IL-15 receptor agonist may be, and is typically determined using flow cytometry to measure STAT5 phosphorylation in lymphocytes at various time points after administration of the agonist to be evaluated in mice. As a reference, the signal is lost by around 24 hours with IL-15, but is sustained for a period greater than that for a long-acting IL-15 agonist.

In another assay the test system is CD56+ human NK cells. In words: Dose response of human NK cell proliferation in CFSE labeled PBMCs (Example 8). The following applies: 5 days. The format is cell-based. As for the experimental part: Human peripheral blood mononuclear cell (PBMCs) labeled with a CFSE preparation were incubated for 5 days in vitro in the presence of increasing doses of rhIL-15 (dose range 1 ng/ml-100 ng/ml, 5 point, 3 fold dilutions) or a long-acting IL-15 receptor agonist (mono(mPEG-butanamide)IL-15) (dose range 10 ng/ml-1000 ng/ml, 5 point, 3 fold dilutions). After the incubation period, cell proliferation as indicated by the decrease of CFSE in the cells that had undergone cell doublings was measured with flow cytometry measuring CFSE levels in CD56+ human NK cells within the PBMCs preparation.

Where [9] appears, read: Conjugate 1 0.3 mg/kg, antibody 0.5 mg/kg.

Regarding “rituximab: anti-CD20 monoclonal antibody (Rituxan®, Genentech) [reference compound]”, the survival in the assay on Daudi B cell lymphoma [1] worked out at 0%.

On to “Daratumumab: anti-CD38 monoclonal antibody (DARZALEX®, Janssen Biotech) [reference compound]”, for which, in the assay on NK cells [2], the “% NK cells expressing NKG2A (mean, n = 6)” value was 54.83% and the “% NK cells expressing NKG2D (mean, n = 6)” value is reported as 10.22%. Also, in the assay on NK cells [3] (Conjugate 1 0.3 mg/kg SC days 14 and 21, antibody 0.5 mg/kg IP day 14), the “Fraction of NK cell expressing cell surface CD16 (mean value)” value came to 81%. Also, in the assay on NK cells [3] (setting [9]), the “CD16 mean fluorescence intensity (MFI mean value)” value came to 448 and the “Relative CD16 expression compared to untreated condition” value is “No increase (1x)”. The “intra-bone marrow tumor cells depleted” value in the assay with Daudi B cell lymphoma [4] (high dose (daratumumab 5 mg/kg; compound 1 0.6 mg/kg)) was 58%. For the same substance, the “intra-bone marrow tumor cells depleted” value in the assay with Daudi B cell lymphoma [4] (low dose (daratumumab 0.05 mg/kg; compound 1 0.03 mg/kg)) was 30%. Also, the median survival in the assay on Daudi B cell lymphoma [5] is listed as 28.5 days. For the same substance, in the assay with NK cells [6], the “Granzyme B mean fluorescence intensity (MFI mean value)” value came to 272 and the “Relative Granzyme B expression compared to untreated condition” value was “No increase (0.7x)”.

On to “rhIL-15: recombinant human interleukin-15 (SEQ ID NO: 1), unconjugated comparator [reference compound]”, for which the “phosphorylation of STAT5” value in [7] was “dose-dependent phosphorylation of STAT5”. For the same substance, the “time by which the STAT5 phosphorylation signal is lost” value in assay [8] is given as “around 24 hours”. In addition, in the assay with CD56+ human NK cells, the “EC50 (ng/ml)-% proliferation” value worked out at 2.28 ng/mL and the Emax-% proliferation is 69.6%.
